Measurements as given in article PMC9232612, “A phase 1b randomised controlled trial of a glucagon-like peptide-1 and glucagon receptor dual agonist IBI362 (LY3305677) in Chinese patients with type 2 diabetes” (Nature Communications, 2022).
Where “and” joins values, the source holds several entries; their conditions need not be identical. Identical values can stand only once.

How the values were obtained:
Type in all cases: in vivo, human
Waist circumference = conditions: for Change from baseline to week 12 in waist circumference, individual: single patients
Description: Exploratory outcomes included change from baseline in body weight, waist circumference, body-mass index (BMI) and change in homeostatic model assessment of β-cell function (HOMA-β) and insulin resistance (HOMA-IR).

[1] = tested on: Chinese patients with T2D; experiment: Mixed-meal tolerance test (MTT): C peptide
Procedure: (§1) HbA1c (2200101, Bio-Rad, USA), blood glucose (05168791190, Roche Diagnostics, Germany), insulin (12017547122, Roche Diagnostics, Germany), C peptide (03184897190, Roche Diagnostics, Germany), total GLP-1 (GLP-1 [7–36] amide and its metabolite, GLP-1 [9–36] amide, 10-1278-01, Mercodia AB, Sweden) and OXM (AL-139, AnshLabs, USA) tests were performed according to the manufactures’ instruction manuals in a central laboratory (KingMed Diagnostics, Guangzhou, China). HbA1c was measured using a Bio-rad D-100 Haemoglobin Testing System (Bio-rad). Blood glucose was measured using a Roche Cobas c702 analyser (Roche Diagnostics). Insulin and C peptide were measured using a Roche […] analyser (Roche Diagnostics). GLP-1 and OXM were measured using a Tecan Infinite M Plex microplate reader (TECAN).
(§2) Standard non-compartmental pharmacokinetics methods were used to analyze IBI362 plasma concentration data using Pkanalix 2020R1 (Lixoft, Antony, France). Secondary efficacy outcomes included change from baseline to week 12 in HbA1c, fasting plasma glucose (FPG), fasting insulin levels, change from baseline to week 12 in post-mixed-meal tolerance test (post-MTT) glucose, insulin, C peptide, GLP-1 and OXM levels, as well as seven-point self-measured blood glucose (SMBG) profile.
IBI362 Innovent Biologics (Suzhou) Co., Ltd. CIBI362A101
3. Standard meal test (MTT) collection measures included: insulin, C-peptide, plasma glucose, glucagon, endogenous OXM, and endogenous GLP-1. The sampling points include: fasting, 30 min, 1h, 2h, 3h and 4h.
A total of 9 mL blood will be collected from each blood collection point. See the manual of the central laboratory for the detailed operation process. Fasting state refers to fasting for 10 hours. [ The standard meal is
instant noodles. The master Kang roast beef noodles (bucket noodles) purchased by the sponsor in a unified manner are removed from the oil bag. The noodles are soaked in boiled water and then removed. The seasoning
bag is added and mixed well. The time is counted from the first bite of eating. The noodles are eaten within 10 minutes, and 200 mL of water is drunk; or the instant noodles are directly opened with 200 mL of boiled
water to ensure that the noodles are eaten and the water or soup is drunk]. Visit days when MTT test is performed: 1 day prior to Cycle 1 administration, Day 80 (D80).
4. If the patient experiences drug-related adverse events during dose escalation and meets the protocol-specified tolerance criteria, dose adjustment is required at the investigator's discretion, and a standard meal test
should be performed 48 hours after the first dose after dose adjustment.
● Test by central laboratory

[2] = tested on: Chinese patients with T2D; experiment: Glycated haemoglobin A1c (HbA1c); conditions: n=8
Procedure: as §1, §2
The analyses for change from baseline in HbA1c, FPG, post-MTT glucose AUC0–4 h and body weight were performed using the mixed-effect model for repeated measures (MMRM) with least-squares means and standard error provided. The MMRM included the corresponding baseline value, treatment, visit and treatment-by-visit as fixed effects and patient as a random effect. Mean change or mean percent change from baseline were analysed using a restricted maximum likelihood (REML)‐based repeated measures approach in combination with the Newton Raphson Algorithm. The fix effect of visit was fitted as a repeated effect and an unstructured covariance matrix was used. In case of non-converge, matrix like Variance Components and Compound Symmetry will be tested in a subsequent order until model‐convergence is achieved. The Kenward-Roger degree of freedom was used in estimating fixed effects. No missing data imputation was conducted. For HbA1c, FPG and body weight, point estimate of treatment difference versus placebo and 90% CI were provided for each IBI362 dose group and the dulaglutide group, with nominal p values.

Q: For CC(C)C[C@H](NC(=O)[C@H](CC(C)C)NC(=O)[C@H](Cc1c[nH]c2ccccc12)NC(=O)[C@H](CCC(=O)O)NC(=O)[C@@H](NC(=O)[C@H](Cc1ccccc1)NC(=O)[C@H](CCC(=O)O)NC(=O)[C@H](CCCCNC(=O)COCCOCCNC(=O)COCCOCCNC(=O)CC[C@H](NC(=O)CCCCCCCCCCCCCCCCCCC(=O)O)C(=O)O)NC(=O)[C@H](C)NC(=O)[C@H](CCCCN)NC(=O)[C@H](CCCCN)NC(=O)[C@H](CCC(=O)O)NC(=O)[C@H](CC(=O)O)NC(=O)[C@H](CC(C)C)NC(=O)[C@H](Cc1ccc(O)cc1)NC(=O)[C@H](CCCCN)NC(=O)[C@H](CO)NC(=O)[C@H](Cc1ccc(O)cc1)NC(=O)[C@H](CC(=O)O)NC(=O)[C@H](CO)NC(=O)[C@@H](NC(=O)[C@H](Cc1ccccc1)NC(=O)[C@@H](NC(=O)CNC(=O)[C@H](CCC(N)=O)NC(=O)C(C)(C)NC(=O)[C@@H](N)Cc1c[nH]cn1)[C@@H](C)O)[C@@H](C)O)C(C)C)C(=O)N[C@@H](CCC(=O)O)C(=O)NCC(=O)NCC(=O)N1CCC[C@H]1C(=O)N[C@@H](CO)C(=O)N[C@@H](CO)C(=O)NCC(N)=O [IBI362], which “Change from baseline to week 12 in waist circumference, mean” value (Waist circumference; 3.0 mg cohort, n=7) is on record?
A: -0.5 cm

Q: What about the “Change from baseline to week 12 in waist circumference, mean” value (Waist circumference; 4.5 mg cohort, n=5) of the same compound?
A: -3.0 cm

Q: And the “Change from baseline to week 12 in waist circumference, individual” value (“Change from baseline … individual” below) (Waist circumference; 3.0 mg cohort, n=7)?
A: -4.4 cm and -0.2 cm and -4.0 cm and -1.0 cm and 3.7 cm and 3.5 cm

Q: And the “Change from baseline … individual” value (Waist circumference; 4.5 mg cohort, n=5)?
A: -4.5 cm and -1.8 cm and -2.1 cm and -2.2 cm and -4.2 cm

Q: What about the “Change from baseline … individual” value (Waist circumference; 6.0 mg cohort, n=8) of the same compound?
A: -4.7 cm and -2.5 cm and -1.0 cm and -7.5 cm and -5.1 cm and -13.3 cm and -1.5 cm and -2.9 cm

Q: What about the “C peptide during MTT, mean” value ([1]; week 12, 0 min, 3.0 mg cohort, n=7) of the same compound?
A: 2.67 ng/mL

Q: What about the “C peptide during MTT, mean” value ([1]; week 12, 0 min, 4.5 mg cohort, n=5) of the same compound?
A: 2.81 ng/mL

Q: What about the “C peptide during MTT, mean” value ([1]; week 12, 0 min, 6.0 mg cohort, n=8) of the same compound?
A: 2.79 ng/mL

Q: What about the “C peptide during MTT, mean” value ([1]; week 12, 30 min, 3.0 mg cohort, n=7) of the same compound?
A: 3.41 ng/mL

Q: What about the “C peptide during MTT, mean” value ([1]; week 12, 30 min, 4.5 mg cohort, n=5) of the same compound?
A: 3.46 ng/mL

Q: And the “C peptide during MTT, mean” value ([1]; week 12, 30 min, 6.0 mg cohort, n=8)?
A: 3.54 ng/mL

Q: And the “C peptide during MTT, mean” value ([1]; week 12, 60 min, 3.0 mg cohort, n=7)?
A: 5.15 ng/mL

Q: And the “C peptide during MTT, mean” value ([1]; week 12, 60 min, 4.5 mg cohort, n=5)?
A: 4.85 ng/mL

Q: What about the “C peptide during MTT, mean” value ([1]; week 12, 60 min, 6.0 mg cohort, n=8) of the same compound?
A: 5.24 ng/mL

Q: What about the “C peptide during MTT, mean” value ([1]; week 12, 120 min, 3.0 mg cohort, n=7) of the same compound?
A: 8.22 ng/mL

Q: What about the “C peptide during MTT, mean” value ([1]; week 12, 120 min, 4.5 mg cohort, n=5) of the same compound?
A: 6.34 ng/mL

Q: And the “C peptide during MTT, mean” value ([1]; week 12, 120 min, 6.0 mg cohort, n=8)?
A: 8.25 ng/mL

Q: What about the “C peptide during MTT, mean” value ([1]; week 12, 180 min, 3.0 mg cohort, n=7) of the same compound?
A: 7.74 ng/mL

Q: What about the “C peptide during MTT, mean” value ([1]; week 12, 180 min, 4.5 mg cohort, n=5) of the same compound?
A: 7.22 ng/mL

Q: And the “C peptide during MTT, mean” value ([1]; week 12, 180 min, 6.0 mg cohort, n=8)?
A: 7.50 ng/mL

Q: What about the “C peptide during MTT, mean” value ([1]; week 12, 240 min, 3.0 mg cohort, n=7) of the same compound?
A: 5.91 ng/mL

Q: What about the “C peptide during MTT, mean” value ([1]; week 12, 240 min, 4.5 mg cohort, n=5) of the same compound?
A: 5.24 ng/mL

Q: What about the “C peptide during MTT, mean” value ([1]; week 12, 240 min, 6.0 mg cohort, n=8) of the same compound?
A: 5.41 ng/mL

Q: And the “Percent of patients with change from baseline to week 12 in HbA1c <1.0%” value (shortened to “Percent of patients with change … in HbA1c <1.0%”) ([2]; 3.0 mg cohort)?
A: 0.0%

Q: And the “Percent of patients with change from baseline to week 12 in HbA1c ≥1.0% and <1.5%” value ([2]; 3.0 mg cohort)?
A: 37.5%

Q: And the “Percent of patients with change from baseline to week 12 in HbA1c ≥1.5% and <2.0%” value ([2]; 3.0 mg cohort)?
A: 25.0%

Q: What about the “Percent of patients with change from baseline to week 12 in HbA1c ≥2.0%” value (“Percent of patients with change … in HbA1c ≥2.0%” below) ([2]; 3.0 mg cohort) of the same compound?
A: 25.0%

Q: What about the “Percent of patients with change … in HbA1c <1.0%” value ([2]; 4.5 mg cohort) of the same compound?
A: 0.0%

Q: What about the “Percent of patients with change from baseline to week 12 in HbA1c ≥1.0% and <1.5%” value ([2]; 4.5 mg cohort) of the same compound?
A: 12.5%

Q: And the “Percent of patients with change from baseline to week 12 in HbA1c ≥1.5% and <2.0%” value ([2]; 4.5 mg cohort)?
A: 25.0%

Q: What about the “Percent of patients with change … in HbA1c ≥2.0%” value ([2]; 4.5 mg cohort) of the same compound?
A: 37.5%

Q: And the “Percent of patients with change … in HbA1c <1.0%” value ([2]; 6.0 mg cohort)?
A: 25.0%

Q: What about the “Percent of patients with change from baseline to week 12 in HbA1c ≥1.0% and <1.5%” value ([2]; 6.0 mg cohort) of the same compound?
A: 0.0%

Q: And the “Percent of patients with change from baseline to week 12 in HbA1c ≥1.5% and <2.0%” value ([2]; 6.0 mg cohort)?
A: 37.5%

Q: And the “Percent of patients with change … in HbA1c ≥2.0%” value ([2]; 6.0 mg cohort)?
A: 37.5%
